Test results from ChEMBL document CHEMBL1156103, “Ionic liquid mediated and promoted eco-friendly preparation of thiazolidinone and pyrimidine nucleoside-thiazolidinone hybrids and their antiparasitic activities” (Bioorg Med Chem Lett, 2009).

How the values were obtained:
[1] = test system: Trypanosoma brucei brucei; experiment: Antitrypanosomal activity against Trypanosoma brucei brucei GVR 35 trypomastigotes after 72 hrs by MTT assay; format: functional, organism-based; conditions: GVR 35, 72 h
Leishmania donovani = experiment: Antileishmanial activity against Leishmania donovani LV9 promastigotes after 72 hrs by MTT assay; format: functional, organism-based; conditions: LV9, 72 h

Row | IC50 [1] | SMILES | IC50 (Leishmania donovani)
1 | > 100 µM | CC(=O)OC[C@H]1O[C@@H](n2cc(C3SCC(=O)N3c3ccc(F)cc3)c(=O)[nH]c2=O)C[C@@H]1OC(C)=O (some centres undefined) | 50 µM
2 | > 100 µM | CC(=O)OC[C@H]1O[C@@H](n2cc(C3SCC(=O)N3c3cccc([N+](=O)[O-])c3)c(=O)[nH]c2=O)C[C@@H]1OC(C)=O (some centres undefined) | > 100 µM
3 | > 100 µM | CC(=O)OC[C@H]1O[C@@H](n2cc(C3SCC(=O)N3c3ccc(Cl)cc3)c(=O)[nH]c2=O)C[C@@H]1OC(C)=O (some centres undefined) | 25 µM
4 | > 100 µM | CC(=O)OC[C@H]1O[C@@H](n2cc(C3SCC(=O)N3c3ccccn3)c(=O)[nH]c2=O)C[C@@H]1OC(C)=O (some centres undefined) | > 100 µM
5 | > 100 µM | CC(=O)OC[C@H]1O[C@@H](n2cc(C3SCC(=O)N3c3cccc(Br)n3)c(=O)[nH]c2=O)C[C@@H]1OC(C)=O (some centres undefined) | 50 µM
6 | > 100 µM | CC(=O)OC[C@H]1O[C@@H](n2cc(C3SCC(=O)N3c3ccc(C)cc3)c(=O)[nH]c2=O)C[C@@H]1OC(C)=O (some centres undefined) | 100 µM
7 | > 100 µM | CC(=O)OC[C@H]1O[C@@H](n2cc(C3SCC(=O)N3c3ccccc3)c(=O)[nH]c2=O)C[C@@H]1OC(C)=O (some centres undefined) | 50 µM
